Assay results published in patent US7816353B2 (Exelixis, Inc., priority 2003, dated 2010).

target: T1, p70S6K (Homo sapiens, UniProt P23443, T412E); assay: p70S6 Kinase Assay (Luciferase-Coupled Chemiluminescent Kinase assay, LCCA); type: biochemical; conditions: human p70S6 kinase domain residues 1-421, T412E; 5 μM ATP; read-out: p70S6K IC50
T1 construct: human p70S6 kinase domain residues 1-421, containing a T412E mutation; made in house
Method: Kinase activity and compound inhibition are investigated using one or more of the three assay formats described below. The ATP concentrations for each assay are selected to be close to the Michaelis-Menten constant (KM) for each individual kinase. Dose-response experiments are performed at 10 different inhibitor concentrations in a 384-well plate format. […] Y=Min+(Max−Min)/(1+(X/IC50)^H) Equation (2) p70S6 Kinase Assay
Biochemical activity of p70S6 kinase was assessed using a Luciferase-Coupled Chemiluminescent Kinase assay (LCCA) format. Kinase activity was measured as the percent ATP remaining following the kinase reaction. Remaining ATP was detected by luciferase-luciferin-coupled chemiluminescence. […] The mixture is incubated at ambient temperature for 2 hours after which 20 μL luciferase-luciferin mix is added and the chemiluminescent signal read using a Wallac Victor^2 reader.

T1 sequence (P23443 1-421 T412E): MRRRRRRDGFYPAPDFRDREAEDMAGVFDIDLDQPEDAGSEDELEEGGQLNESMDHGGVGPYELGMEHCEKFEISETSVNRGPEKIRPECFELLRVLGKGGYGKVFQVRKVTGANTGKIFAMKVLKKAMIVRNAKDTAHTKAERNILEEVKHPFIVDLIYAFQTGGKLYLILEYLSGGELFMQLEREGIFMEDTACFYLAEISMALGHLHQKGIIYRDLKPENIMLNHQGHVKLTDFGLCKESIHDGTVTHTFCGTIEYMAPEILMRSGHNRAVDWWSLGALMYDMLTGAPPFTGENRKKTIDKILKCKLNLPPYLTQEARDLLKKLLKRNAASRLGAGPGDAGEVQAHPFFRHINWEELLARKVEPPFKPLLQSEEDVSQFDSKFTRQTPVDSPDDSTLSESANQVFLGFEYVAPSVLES

SMILES	IC50
CSc1nc(N)nc(OCC(=O)Nc2cccc(C(F)(F)F)c2)c1C=O [Example 46, 2-{[2-amino-5-formyl-6-(methylthio)pyrimidin-4-yl]oxy}-N-[3-(trifluoromethyl)phenyl]acetamide]	50 to 500 nM
CCN(CC)CCOc1cccc(NC(=O)[C@H](C)Nc2nc(N)nc(SC)c2C#N)c1 [Example 92, N^2-[2-amino-5-cyano-6-(methylthio)pyrimidin-4-yl]-N-(3-{[2-(diethylamino)ethyl]oxy}phenyl)-L-alaninamide]	> 2000 nM
CSc1nc(N)nc(OCC(=O)Nc2cccc(C(F)(F)F)c2)n1 [Example 47, 2-{[4-amino-6-(methylthio)-1,3,5-triazin-2-yl]oxy}-N-[3-(trifluoromethyl)phenyl]acetamide]	50 to 500 nM
CCOc1nc(N)nc(N(C)[C@@H](C)C(=O)Nc2cccc(Br)c2)c1C#N [Example 174, N~2~-[2-amino-5-cyano-6-(ethyloxy)pyrimidin-4-yl]-N-(3-bromophenyl)-N~2~-methyl-L-alaninamide]	> 2000 nM
N#Cc1cnc(N2CCOCC2)nc1NCC(=O)Nc1cccc(C(F)(F)F)c1 [Example 76]	> 2000 nM
N#Cc1c(SCC(=O)Nc2cccc(C(F)(F)F)c2)nc(N)nc1N1CCOCC1 [Example 84, 2-[(2-amino-5-cyano-6-morpholin-4-ylpyrimidin-4-yl)thio]-N-[3-(trifluoromethyl)phenyl]acetamide]	> 2000 nM
Nc1nc(NCC(=O)Nc2cccc(C(F)(F)F)c2)c2cn[nH]c2n1 [Example 57, N^2-(6-amino-1H-pyrazolo[3,4-d]pyrimidin-4-yl)-N-[3-(trifluoromethyl)phenyl]glycinamide]	500 to 2000 nM
CSc1nc(N)nc(SCC(=O)Nc2cc(C(F)(F)F)ccc2Cl)c1C#N [Example 55, 2-{[2-amino-5-cyano-6-(methylthio)pyrimidin-4-yl]thio}-N-[2-chloro-5-(trifluoromethyl)phenyl]acetamide]	500 to 2000 nM
CNc1nc(N)nc(SCC(=O)Nc2cccc(C(F)(F)F)c2)c1C=O [Example 45, 2-{[2-amino-5-formyl-6-(methylamino)pyrimidin-4-yl]thio}-N-[3-(trifluoromethyl)phenyl]acetamide]	50 to 500 nM
CSc1nc(N)nc(SCC(=O)Nc2cccc(C(F)(F)F)c2C)c1C#N [Example 53, 2-{[2-amino-5-cyano-6-(methylthio)pyrimidin-4-yl]thio}-N-[2-methyl-3-(trifluoromethyl)phenyl]acetamide]	500 to 2000 nM
COc1ccc(C(F)(F)F)cc1NC(=O)CSc1nc(N)nc(SC)c1C#N [Example 54, 2-{[2-mino-5-cyano-6-(methylthio)pyrimidin-4-yl]thio}-N-[2-(methyloxy)-5-(trifluoromethyl)phenyl]acetamide]	500 to 2000 nM
COc1nc(N)nc(N(C)[C@@H](C)C(=O)Nc2cccc(C(F)(F)F)c2)c1C#N [Example 119, N^2-[2-amino-5-cyano-6-(methyloxy)pyrimidin-4-yl]-N^2-methyl-N-[3-(trifluoromethyl)phenyl]-L-alaninamide]	> 2000 nM

Next, values leading:

IC50	SMILES
> 2000 nM	CCOc1nc(N)nc(N[C@@H](C)C(=O)Nc2cccc(C(F)(F)F)c2)c1C#N [Example 88, N^2-[2-amino-5-cyano-6-(ethyloxy)pyrimidin-4-yl]-N-[3-(trifluoromethyl)phenyl]-L-alaninamide]
> 2000 nM	CSc1nc(N)nc(N[C@@H](CCCNC(C)=O)C(=O)Nc2cccc(C(F)(F)F)c2)c1C#N [Example 123, N^5-acetyl-N^2-[2-amino-5-cyano-6-(methylthio)pyrimidin-4-yl]-N-[3-(trifluoromethyl)phenyl]-L-ornithinamide]
> 2000 nM	CCOc1nc(N)nc(NNC(=O)Nc2cccc(C(F)(F)F)c2)c1C#N [Example 127, 2-[2-amino-5-cyano-6-(ethyloxy)pyrimidin-4-yl]-N-[3-(trifluoromethyl)phenyl]hydrazinecarboxamide]
> 2000 nM	CCOc1nc(N)nc(N[C@@H](CCCCN(C)C)C(=O)Nc2cccc(C(F)(F)F)c2)c1C#N [Example 156, N~2~-[2-amino-5-cyano-6-(ethyloxy)pyrimidin-4-yl]-N~6~,N~6~-dimethyl-N-[3-(trifluoromethyl)phenyl]-L-lysinamide]
50 to 500 nM	CSc1nc(N)nc(N[C@@H](CCCN2CCOCC2)C(=O)Nc2cccc(C(F)(F)F)c2)c1C#N [Example 143, N~2~-[2-amino-5-cyano-6-(methylthio)pyrimidin-4-yl]-5-morpholin-4-yl-N-[3-(trifluoromethyl)phenyl]-L-norvalinamide]
> 2000 nM	COCCNc1nc(N[C@@H](C)C(=O)Nc2cccc(C(F)(F)F)c2)c(C#N)c(SC)n1 [Example 116]
> 2000 nM	CCOc1nc(N)nc(N[C@@H](COC(C)=O)C(=O)Nc2cccc(C(F)(F)F)c2)c1C#N [Example 164, (2S)-2-{[2-amino-5-cyano-6-(ethyloxy)pyrimidin-4-yl]amino}-3-oxo-3-{[3-(trifluoromethyl)phenyl]amino}propyl acetate]
> 2000 nM	CSc1nc(N)nc(NC2(C(=O)Nc3cccc(C(F)(F)F)c3)CC2)c1C#N [Example 73, 1-{[2-amino-5-cyno-6-(methylthio)pyrimidin-4-yl]amino}-N-[3-(trifluoromethyl)phenyl]cyclopropanecarboxamide]
> 2000 nM	CSc1nc(N)nc(N[C@@H](CCCNC(=N)N)C(=O)Nc2cccc(C(F)(F)F)c2)c1C#N [Example 117, N^2-[2-amino-5-cyano-6-(methylthio)pyrimidin-4-yl]-N-[3-(trifluoromethyl)phenyl]-L-argininamide]
> 2000 nM	CCOc1nc(N)nc(N[C@@H](CCC(=O)NN)C(=O)Nc2cccc(C(F)(F)F)c2)c1C#N [Example 177, ′2-(2-amino-5-cyano-6-ethoxy-pyrimidin-4-ylamino)-4-hydrazinocarbonyl-N-(3-trifluoromethyl-phenyl)-butyramide]
> 2000 nM	CSc1nc(N)nc(N[C@@H](C)C(=O)Nc2cc(C(=O)NCCN(C)C)cc(C(F)(F)F)c2)c1C#N [Example 125, 3-({N-[2-amino-5-cyano-6-(methylthio)pyrimidin-4-yl]-L-alanyl}amino)-N-[2-(dimethylamino)ethyl]-5-(trifluoromethyl)benzamide]
500 to 2000 nM	CCOc1nc(N)nc(N[C@@H](CO)C(=O)Nc2cccc(C(F)(F)F)c2)c1C#N [Example 150, N~2~-[2-amino-5-cyano-6-(ethyloxy)pyrimidin-4-yl]-N-[3-(trifluoromethyl)phenyl]-L-serinamide]
> 2000 nM	CSc1nc(N)nc(N[C@@H](CCCN)C(=O)Nc2cccc(C(F)(F)F)c2)c1C#N [Example 86, N^2-[2-amino-5-cyano-6-(methylthio)pyrimidin-4-yl]-N-[3-(trifluoromethyl)phenyl]-L-ornithinamide]
> 2000 nM	CCOc1nc(N)nc(N[C@@H](COCc2ccccc2)C(=O)Nc2cccc(C(F)(F)F)c2)c1C#N [Example 151, N~2~-[2-amino-5-cyano-6-(ethyloxy)pyrimidin-4-yl]-O-(phenylmethyl)-N-[3-(trifluoromethyl)phenyl]-L-serinamide]
> 2000 nM	CSc1nc(N)nc(N(C)CC(=O)Nc2cccc(C(F)(F)F)c2)c1C#N [Example 72, N^2-[2-amino-5-cyano-6-(methylthio)pyrimidin-4-yl]-N^2-methyl-N-[3-(trifluoromethyl)phenyl]glycinamide]
